{"source": "patent US20230210792A1", "about": "“USE OF A COMBINATION OF […] A CXCR-2 INHIBITORS FOR THE TREATMENT OR PREVENTION OF FAMILIAL MEDITERRANEAN FEVER (FMF) AND FLARE-UPS THEREOF” (ARISTEA THERAPEUTICS, INC., priority 2020, published 2023)", "origin": "cited, not measured here", "data": [{"smiles": "COc1cc2c(c(OC)c1OC)-c1ccc(OC)c(=O)cc1[C@@H](NC(C)=O)CC2", "note": "[Colchicine]", "values": [{"measurement": "Peak concentrations occur in (time to peak)", "setting": "absorbed from the gastrointestinal tract", "result": "0.5 to 2", "unit": "h"}, {"measurement": "eliminated unchanged in the urine", "setting": "metabolized in the liver, excreted primarily in the feces", "result": "10-20%"}]}]}
